# pIC50, pKi: −log10 of the molar value.
# Tested on: not listed separately
# Assay: Inhibition of TNF-alpha secretion from LPS-stimulated human monocytes
# Type: functional
row,pIC50,SMILES
1,6.34,COC(=O)N1C[C@@H](C(C)=O)[C@H](c2ccc(OC)c(OC3CCCC3)c2)C1
2,6.49,COc1ccc(C2CNC(=O)C2)cc1OC1CCCC1 (configuration not stated) [ROLIPRAM]

# Molecular target: T1, 3',5'-cyclic-AMP phosphodiesterase 4B (Homo sapiens, UniProt Q07343)
# Assay: Inhibition of rolipram binding to Phosphodiesterase 4B
# T1 sequence (Q07343 whole entry): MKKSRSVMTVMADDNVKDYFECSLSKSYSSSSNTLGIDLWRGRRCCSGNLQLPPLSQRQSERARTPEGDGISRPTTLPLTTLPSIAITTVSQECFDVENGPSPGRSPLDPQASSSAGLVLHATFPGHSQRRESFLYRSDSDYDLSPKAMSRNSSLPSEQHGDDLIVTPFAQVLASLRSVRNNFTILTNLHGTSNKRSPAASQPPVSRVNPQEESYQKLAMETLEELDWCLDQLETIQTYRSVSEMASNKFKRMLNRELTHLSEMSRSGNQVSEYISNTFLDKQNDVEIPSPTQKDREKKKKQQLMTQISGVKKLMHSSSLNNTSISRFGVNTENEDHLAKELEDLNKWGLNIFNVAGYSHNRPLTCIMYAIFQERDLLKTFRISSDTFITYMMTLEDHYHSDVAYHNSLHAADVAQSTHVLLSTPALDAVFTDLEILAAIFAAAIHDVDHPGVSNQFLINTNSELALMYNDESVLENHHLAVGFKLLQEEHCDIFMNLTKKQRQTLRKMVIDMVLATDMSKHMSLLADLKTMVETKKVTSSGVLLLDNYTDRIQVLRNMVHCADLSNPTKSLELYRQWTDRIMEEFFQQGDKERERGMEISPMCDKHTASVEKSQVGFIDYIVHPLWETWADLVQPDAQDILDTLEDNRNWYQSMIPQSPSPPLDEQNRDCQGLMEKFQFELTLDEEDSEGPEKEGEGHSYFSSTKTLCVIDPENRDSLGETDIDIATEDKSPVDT
row,pIC50,SMILES
1,6.49,COC(=O)N1C[C@@H](C(C)=O)[C@H](c2ccc(OC)c(OC3CCCC3)c2)C1

# Molecular target: T1, 3',5'-cyclic-AMP phosphodiesterase 4B
# Assay: Ability to inhibit the catalytic activity of human Phosphodiesterase 4B (PDE IVB)
row,SMILES,pKi
1,COc1ccc([C@@H]2CN(C(=O)OC(C)(C)C)C[C@H]2C(=O)O)cc1OC1CCCC1,6.82
2,COC[C@@H]1CN(C(=O)OC(C)(C)C)C[C@H]1c1ccc(OC)c(OC2CCCC2)c1,7.10
3,COc1ccc([C@@H]2CN(C(=O)OCc3ccccc3)C[C@H]2NC(=O)OC(C)(C)C)cc1OC1CCCC1,6.54
4,COc1ccc([C@@H]2CN(C(=O)OC(C)(C)C)C[C@H]2CO)cc1OC1CCCC1,7.30
5,COC(=O)N1C[C@@H](NC(=O)OC(C)(C)C)[C@H](c2ccc(OC)c(OC3CCCC3)c2)C1,4.84
6,COc1ccc([C@@H]2CN(C(=O)OCc3ccccc3)C[C@H]2NS(C)(=O)=O)cc1OC1CCCC1,5.83
7,COC(=O)N1C[C@@H](C(=O)c2ccccc2)[C@H](c2ccc(OC)c(OC3CCCC3)c2)C1,5.22
8,COC(=O)[C@@H]1CN(C(=O)OC(C)(C)C)C[C@H]1c1ccc(OC)c(OCCCOc2ccccc2)c1,6.62
9,COc1ccc([C@@H]2CN(C(=O)OCc3ccccc3)C[C@H]2NS(=O)(=O)c2ccccc2)cc1OC1CCCC1,5.35
10,COC(=O)[C@@H]1CN(C(=O)OC(C)(C)C)C[C@H]1c1ccc(OC)c(OC)c1,5.92
11,COc1ccc([C@@H]2CN(C(=O)OC(C)(C)C)C[C@H]2NC(=O)OC(C)(C)C)cc1OC1CCCC1,5.80

# More lines, now with the values ahead:
row,pKi,SMILES
1,7.40,COC(=O)[C@@H]1CN(C(=O)OC(C)C)C[C@H]1c1ccc(OC)c(OC2CCCC2)c1
2,6.09,COC(=O)[C@@H]1CN(C=O)C[C@H]1c1ccc(OC)c(OC2CCCC2)c1
3,6.42,COC(=O)[C@@H]1CN(C(N)=S)C[C@H]1c1ccc(OC)c(OC2CCCC2)c1
4,5.33,COC(=O)N1C[C@@H](C(=O)OC(C)(C)C)[C@H](c2ccc(OC)c(OC3CCCC3)c2)C1
5,6.72,COc1ccc([C@@H]2CN(C(=O)OC(C)(C)C)C[C@H]2C(N)=O)cc1OC1CCCC1
6,6.46,CCC(=O)[C@@H]1CN(C(=O)OC)C[C@H]1c1ccc(OC)c(OC2CCCC2)c1
7,5.95,CCC(=O)N1C[C@@H](C(=O)OC)[C@H](c2ccc(OC)c(OC3CCCC3)c2)C1
8,5.83,COC(=O)[C@@H]1CN(C(N)=O)C[C@H]1c1ccc(OC)c(OC2CCCC2)c1
9,7.52,COC(=O)N1C[C@@H](C(C)=O)[C@H](c2ccc(OC)c(OC3CCCC3)c2)C1
10,7.30,COC(=O)[C@@H]1CN(C(=O)OCc2ccccc2)C[C@H]1c1ccc(OC)c(OC2CCCC2)c1
11,7.22,COC(=O)N1C[C@@H]([N+](=O)[O-])[C@H](c2ccc(OC)c(OC3CCCC3)c2)C1
12,5.64,COC(=O)N1C[C@@H](C(=O)OC(C)C)[C@H](c2ccc(OC)c(OC3CCCC3)c2)C1
13,7.10,COC(=O)N1C[C@@H](C#N)[C@H](c2ccc(OC)c(OC3CCCC3)c2)C1
14,6.26,CCOC(=O)[C@@H]1CN(C(=O)OC)C[C@H]1c1ccc(OC)c(OC2CCCC2)c1
15,5.73,COC(=O)N1C[C@@H](C(=O)O)[C@H](c2ccc(OC)c(OC3CCCC3)c2)C1
16,5.80,COC(=O)N1C[C@@H](C(N)=O)[C@H](c2ccc(OC)c(OC3CCCC3)c2)C1
17,7.52,COC(=O)[C@@H]1CN(C(=O)OC(C)(C)C)C[C@H]1c1ccc(OC)c(OC2CCCC2)c1
18,6.80,COC(=O)[C@@H]1CN(C(=O)OC)C[C@H]1c1ccc(OC)c(OC2CCCC2)c1
